In patent US20100143441A1 (OsteoGeneX Inc., priority 2008, published 2010):

Tests used:
SOST = SOST (Mus musculus, UniProt Q99P68); settings: predetermined dose for a complete dosing schedule, micro-CT versus control mouse
Experimental: (§1) A general method of identifying SOST antagonists involves evaluating the effects of antagonist candidates on bone formation under controlled conditions. Preferably bone formation is determined using micro-CT techniques on live animals. Preferred animals include rodents, more preferred are primates. Femur, tibia and vertebrae bones are particularly useful subjects for such study.
Briefly, the test animal is treated with a predetermined dose of a SOST antagonist candidate.
This can be accomplished by any suitable method, but is preferably performed on live animals to analyze the bone mineral content. […] A SOST antagonist candidate suitable for use as a SOST antagonist is identified by noting significant bone formation in the test animal when compared to the control animal. Bone formation in the test bone(s) of the test animal can be 0.5%, 1, 5, 10, 20, 30, 40, 50, 60, 70, 80, 90, 100, 200, 300, 400, 500, 600, 700, 800, 900 or 1000% more bone formation than is present in the same bones of the control animal. More preferably, bone formation can be 20%, most preferably 30% or 40%. Where necessary, levels of bone formation can be calculated by determining the volume of bone formation present in each animal. Calculations can be performed by constructing a 3-dimensional image of the bone formation and calculating the volume from the image with the aid of e.g., histomorphometry. […]

Wnt pathway = settings: Wnt+Sclerostin+2.5, 6.3, 12.5 or 25 ng nortriptyline; compared with Wnt only and Wnt+Sclerostin
Experimental: as §1

Sequence of SOST (Q99P68 24-211): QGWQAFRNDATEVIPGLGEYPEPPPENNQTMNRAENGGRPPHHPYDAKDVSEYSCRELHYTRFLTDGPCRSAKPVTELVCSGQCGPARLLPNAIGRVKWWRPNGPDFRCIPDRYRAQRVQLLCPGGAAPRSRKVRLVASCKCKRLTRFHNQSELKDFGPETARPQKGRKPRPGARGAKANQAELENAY

## CNCCC=C1c2ccccc2CCc2ccccc21 [nortriptyline]
SOST
  bone growth (quantity of bone formation present): promoting bone growth
Wnt pathway
  modulation of the Wnt pathway: modulating the Wnt pathway
